In paper PMC11942890, “Identification of a Novel NPC1L1 Inhibitor from Danshen and Its Role in Nonalcoholic Fatty Liver Disease” (International Journal of Molecular Sciences, 2025):

What was measured:
[1] = molecular target: T1, Niemann-Pick C1-like 1 (NPC1L1) (Homo sapiens, UniProt Q9UHC9); assay: NBD-cholesterol uptake inhibition in hL1-Caco2 cells stably expressing human NPC1L1; assay type: cell-based
T1 construct: hNPC1L1 CDS (NM_001101648.2) with 3 × Flag tag at the 3′ end, stably expressed in Caco2 cells (hL1-Caco2)
T1 sequence (Q9UHC9 other isoform, or with tags, fused parts or gaps): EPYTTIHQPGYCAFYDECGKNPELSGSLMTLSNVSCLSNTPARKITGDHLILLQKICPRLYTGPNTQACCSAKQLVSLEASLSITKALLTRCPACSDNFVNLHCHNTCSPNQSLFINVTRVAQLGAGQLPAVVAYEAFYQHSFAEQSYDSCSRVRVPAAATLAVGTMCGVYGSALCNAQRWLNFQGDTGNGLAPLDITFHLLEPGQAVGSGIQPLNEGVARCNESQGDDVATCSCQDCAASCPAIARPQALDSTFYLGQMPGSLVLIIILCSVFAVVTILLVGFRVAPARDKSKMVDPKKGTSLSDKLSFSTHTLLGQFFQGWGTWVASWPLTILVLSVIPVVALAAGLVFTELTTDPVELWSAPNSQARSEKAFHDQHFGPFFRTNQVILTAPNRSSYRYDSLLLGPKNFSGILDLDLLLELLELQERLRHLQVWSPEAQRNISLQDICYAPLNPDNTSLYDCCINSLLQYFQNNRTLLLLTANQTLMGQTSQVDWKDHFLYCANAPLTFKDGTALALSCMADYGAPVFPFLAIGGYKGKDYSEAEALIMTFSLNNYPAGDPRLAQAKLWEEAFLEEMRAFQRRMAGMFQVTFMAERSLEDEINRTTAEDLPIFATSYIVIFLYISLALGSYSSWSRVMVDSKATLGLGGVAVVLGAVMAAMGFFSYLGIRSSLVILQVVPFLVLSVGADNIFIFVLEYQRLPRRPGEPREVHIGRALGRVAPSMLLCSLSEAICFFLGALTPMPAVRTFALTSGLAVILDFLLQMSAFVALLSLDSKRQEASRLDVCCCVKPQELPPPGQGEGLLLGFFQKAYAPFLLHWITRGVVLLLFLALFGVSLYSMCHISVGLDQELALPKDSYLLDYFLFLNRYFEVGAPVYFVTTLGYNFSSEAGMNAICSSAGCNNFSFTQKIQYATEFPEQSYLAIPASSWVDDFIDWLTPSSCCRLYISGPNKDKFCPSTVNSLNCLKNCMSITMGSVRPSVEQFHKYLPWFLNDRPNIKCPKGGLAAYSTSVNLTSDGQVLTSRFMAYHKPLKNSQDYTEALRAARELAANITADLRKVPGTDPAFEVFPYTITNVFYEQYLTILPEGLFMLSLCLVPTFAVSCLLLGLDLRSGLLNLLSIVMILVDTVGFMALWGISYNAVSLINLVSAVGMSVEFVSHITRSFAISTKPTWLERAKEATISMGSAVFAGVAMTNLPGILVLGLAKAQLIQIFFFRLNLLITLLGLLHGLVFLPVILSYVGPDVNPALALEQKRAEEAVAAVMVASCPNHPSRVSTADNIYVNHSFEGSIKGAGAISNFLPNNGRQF

[2] = molecular target: T1, Niemann-Pick C1-like 1 (NPC1L1); assay: reference inhibitor; NPC1L1 inhibition in hL1-Caco2 cells (NBD-cholesterol uptake); assay type: cell-based

Row | Structure (SMILES) | IC50 [1] [µM] | IC50 [2] [µM]
1 | C[C@H]1COC2=C1C(=O)C(=O)c1c2ccc2c1CCCC2(C)C [F1-1, cryptotanshinone] | 12.3 | –
2 | O=C1[C@H](CC[C@H](O)c2ccc(F)cc2)[C@@H](c2ccc(O)cc2)N1c1ccc(F)cc1 [ezetimibe] | – | 0.35
